Target: T1, human recombinant PDE10A (Homo sapiens, UniProt Q9Y233)
T1 construct: made in house; host or cells: SF21 insect cells (baculovirus)
Test: Inhibition of human recombinant PDE10A ([3H]-cAMP SPA, Method B)
Assay type: biochemical
Conditions: read-out: PDE10 inhibition IC50 [nM] PDE10A human
Method: The gene was than inserted into a baculovirus vector, ligated with the baculovirus DNA. The enzyme-protein was expressed in SF21-cells. The enzyme was isolated from these cells by harvesting the cells by a centrifugation at 200 g to collect the cells. The cells were resuspended in 50 mM Tris-HCl/5 mM MgCl2 buffer (pH=7.4) and lysed by a sonication of the cells. The cytosolic PDE10A was obtained by a centrifugation at 48000 g for 1 h in the supernatant and stored at −70° C. PDE10 activity was determined in a one step procedure in microtiterplates. […] Nonspecific activity was tested without the enzyme. The reaction was initiated by addition of the substrate solution and was carried out at 37° C. for 30 minutes. Enzymatic activity was stopped by addition of 25 μl YSi-SPA-beads (Amersham-Pharmacia). One hour later the mixture was measured in a liquid scintillation counter for microtiterplates (Microbeta Trilux). To pipette the incubation mixture a robot Biomek (Fa. Beckman) is used. […] For determination of IC50 values the Hill-plot, 2-parameter-model, was used.

T1 sequence (Q9Y233 1-779 isoform Q9Y233-1): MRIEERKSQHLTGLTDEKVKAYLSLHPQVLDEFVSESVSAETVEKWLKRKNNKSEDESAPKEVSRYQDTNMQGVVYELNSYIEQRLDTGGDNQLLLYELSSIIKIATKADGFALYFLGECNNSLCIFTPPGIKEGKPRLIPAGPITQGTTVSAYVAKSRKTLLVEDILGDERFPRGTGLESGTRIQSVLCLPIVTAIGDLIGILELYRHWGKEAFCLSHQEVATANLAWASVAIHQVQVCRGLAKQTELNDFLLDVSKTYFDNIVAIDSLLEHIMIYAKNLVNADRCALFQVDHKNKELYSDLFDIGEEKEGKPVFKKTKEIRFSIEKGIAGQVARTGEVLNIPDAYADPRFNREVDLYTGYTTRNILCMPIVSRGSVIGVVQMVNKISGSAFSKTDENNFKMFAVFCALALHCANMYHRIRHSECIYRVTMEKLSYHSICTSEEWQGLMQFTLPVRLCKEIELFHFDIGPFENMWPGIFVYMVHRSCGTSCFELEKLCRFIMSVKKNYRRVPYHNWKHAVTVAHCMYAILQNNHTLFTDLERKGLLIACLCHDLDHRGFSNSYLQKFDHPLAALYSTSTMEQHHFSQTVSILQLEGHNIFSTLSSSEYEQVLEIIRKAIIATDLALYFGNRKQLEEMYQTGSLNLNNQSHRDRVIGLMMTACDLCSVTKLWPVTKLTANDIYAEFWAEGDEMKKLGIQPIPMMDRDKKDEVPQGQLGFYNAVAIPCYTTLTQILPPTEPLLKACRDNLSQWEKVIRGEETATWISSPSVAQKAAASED

| SMILES | IC50 |
| --- | --- |
| COc1cc(F)c2nc(C)c3c(C)nc(-c4ccccc4C)n3c2c1 [Example 31, 6-Fluoro-8-methoxy-3,4-dimethyl-1-(2-methylphenyl)-imidazo[1,5-a]quinoxaline] | ≤ 10 nM |
| COc1cc(F)c2nc(C)c3c(C)nc(-c4cccc(F)c4C)n3c2c1 [Example 32, 6-Fluoro-1-(3-fluoro-2-methylphenyl)-8-methoxy-3,4-dimethylimidazo[1,5-a]quinoxaline] | ≤ 10 nM |
| COc1cc(F)c2nc(C)c3c(C)nc(-c4ccc(F)cc4Cl)n3c2c1 [Example 33, 1-(2-Chloro-4-fluorophenyl)-6-fluoro-8-methoxy-3,4-dimethylimidazo[1,5-a]quinoxaline] | ≤ 10 nM |
| Cc1nc(F)ccc1-c1nc(C)c2c(C)nc3ccc(Cl)cc3n12 [Example 62, 8-chloro-1-(6-fluoro-2-methylpyridin-3-yl)-3,4-dimethylimidazo[1,5-a]quinoxaline] | 10 to 100 nM |
| Cc1ccccc1-c1nc(C)c2c(C)nc3ccc(Cl)cc3n12 [Example 63, 8-chloro-3,4-dimethyl-1-(2-methylphenyl)imidazo[1,5-a]quinoxaline] | ≤ 10 nM |
| Cc1nc(-c2cccc(C(N)=O)c2)n2c1c(C)nc1ccc(Cl)cc12 [Example 64, 3-(8-chloro-3,4-dimethylimidazo[1,5-a]quinoxalin-1-yl)benzamide] | ≤ 10 nM |
| Cc1nc(-c2ccccc2Cl)n2c1c(C)nc1ccc(Cl)cc12 [Example 67, 8-chloro-1-(2-chlorophenyl)-3,4-dimethylimidazo[1,5-a]quinoxaline] | ≤ 10 nM |
| Cc1nc(-c2ccc(F)c(C(N)=O)c2)n2c1c(C)nc1ccc(Cl)cc12 [Example 68, 5-(8-chloro-3,4-dimethylimidazo[1,5-a]quinoxalin-1-yl)-2-fluorobenzamide] | 10 to 100 nM |
| Cc1nn(C)c(C)c1-c1nc(C)c2c(C)nc3ccc(Cl)cc3n12 [Example 69, 8-chloro-3,4-dimethyl-1-(1,3,5-trimethyl-1H-pyrazol-4-yl)imidazo[1,5-a]quinoxaline] | 10 to 100 nM |
| Cc1ccccc1-c1nc(C)c2c(C)nc3c(F)cc(F)cc3n12 [Example 70, 6,8-difluoro-3,4-dimethyl-1-(2-methylphenyl)imidazo[1,5-a]quinoxaline] | ≤ 10 nM |

Continued, values first:

| IC50 | SMILES |
| --- | --- |
| ≥ 100 nM | COc1nc(C)c2c(C)nc3c(F)cc(F)cc3n12 [Example 73, 6,8-difluoro-1-methoxy-3,4-dimethylimidazo[1,5-a]quinoxaline] |
| ≤ 10 nM | COc1cc(F)c2nc(C)c3c(C)nc(-c4ccccc4Cl)n3c2c1 [Example 77, 1-(2-chlorophenyl)-6-fluoro-8-methoxy-3,4-dimethylimidazo[1,5-a]quinoxaline] |
| ≤ 10 nM | COc1cc(F)c2nc(C)c3c(C)nc(-c4ccc(F)c(C(N)=O)c4)n3c2c1 [Example 78, 2-fluoro-5-(6-fluoro-8-methoxy-3,4-dimethylimidazo[1,5-a]quinoxalin-1-yl)benzamide] |
| ≤ 10 nM | COc1ccncc1-c1nc(C)c2c(C)nc3c(OC)cc(F)cc3n12 [Example 80, 8-fluoro-6-methoxy-1-(4-methoxypyridin-3-yl)-3,4-dimethylimidazo[1,5-a]quinoxaline] |
| ≤ 10 nM | COc1cc(F)cc2c1nc(C)c1c(C)nc(-c3ccccc3Cl)n12 [Example 85, 1-(2-chlorophenyl)-8-fluoro-6-methoxy-3,4-dimethylimidazo[1,5-a]quinoxaline] |
| 10 to 100 nM | Cc1ccsc1-c1nc(C)c2c(C)nc3ccccc3n12 [Example 99, 3,4-dimethyl-1-(3-methyl-2-thienyl)imidazo[1,5-a]quinoxaline] |
| ≥ 100 nM | Cc1noc(C)c1-c1nc(C)c2c(C)nc3ccccc3n12 [Example 100, 1-(3,5-dimethylisoxazol-4-yl)-3,4-dimethylimidazo[1,5-a]quinoxaline] |
| 10 to 100 nM | Cc1nc(-c2cccc(C(N)=O)c2)n2c1c(C)nc1ccccc12 [Example 101, 3-(3,4-dimethylimidazo[1,5-a]quinoxalin-1-yl)benzamide] |
